One experiment deals with Cytochrome P450 2C19 (Homo sapiens, UniProt P33261). The experiment is described as follows: Cytochrome panel assay with activity outcomes. Panel member name: p450-cyp2c19 Compounds with AC50 equal or less than 10 uM are considered active. Format: functional. The note with it: read-out: AC50.
Experiment [1] deals with T1, Sentrin-specific protease 7 (Homo sapiens, UniProt Q9BQF6).
T1 sequence (Q9BQF6 whole entry): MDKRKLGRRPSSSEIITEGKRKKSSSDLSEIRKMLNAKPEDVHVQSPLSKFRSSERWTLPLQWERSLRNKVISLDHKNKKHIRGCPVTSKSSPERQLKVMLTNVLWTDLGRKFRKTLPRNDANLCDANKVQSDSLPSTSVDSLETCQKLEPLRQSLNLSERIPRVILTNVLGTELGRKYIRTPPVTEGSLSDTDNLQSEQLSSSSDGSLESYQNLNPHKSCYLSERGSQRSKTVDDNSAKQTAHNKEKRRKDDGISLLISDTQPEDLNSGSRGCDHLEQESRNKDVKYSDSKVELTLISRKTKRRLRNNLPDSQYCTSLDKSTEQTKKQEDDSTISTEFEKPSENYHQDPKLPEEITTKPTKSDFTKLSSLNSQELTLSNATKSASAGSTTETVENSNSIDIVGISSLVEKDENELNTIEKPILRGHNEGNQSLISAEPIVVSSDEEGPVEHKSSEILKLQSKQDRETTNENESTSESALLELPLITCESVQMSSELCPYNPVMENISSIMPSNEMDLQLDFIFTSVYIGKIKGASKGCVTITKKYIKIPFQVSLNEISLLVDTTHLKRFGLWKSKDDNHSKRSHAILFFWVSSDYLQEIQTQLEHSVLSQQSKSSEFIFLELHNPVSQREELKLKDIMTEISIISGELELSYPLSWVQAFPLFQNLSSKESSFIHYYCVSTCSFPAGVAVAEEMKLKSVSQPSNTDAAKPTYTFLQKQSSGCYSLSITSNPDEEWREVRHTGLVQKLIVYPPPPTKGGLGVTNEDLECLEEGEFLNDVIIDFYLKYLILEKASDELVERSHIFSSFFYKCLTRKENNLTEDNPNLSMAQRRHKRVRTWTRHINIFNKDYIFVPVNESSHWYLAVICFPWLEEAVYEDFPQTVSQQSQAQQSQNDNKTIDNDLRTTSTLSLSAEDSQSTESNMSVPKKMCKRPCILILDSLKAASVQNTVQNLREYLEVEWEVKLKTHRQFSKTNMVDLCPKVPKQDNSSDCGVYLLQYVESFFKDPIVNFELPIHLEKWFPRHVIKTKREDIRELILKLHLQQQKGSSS
Format: functional.

The target of a further experiment is Cytochrome P450 2D6 (Homo sapiens, UniProt P10635).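 Further: CYP2D6 member of a cytochrome P450 panel assay.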
Experiment [2] addresses T2, Sentrin-specific protease 6 (Homo sapiens, UniProt Q9GZR1).
T2 sequence (Q9GZR1 whole entry): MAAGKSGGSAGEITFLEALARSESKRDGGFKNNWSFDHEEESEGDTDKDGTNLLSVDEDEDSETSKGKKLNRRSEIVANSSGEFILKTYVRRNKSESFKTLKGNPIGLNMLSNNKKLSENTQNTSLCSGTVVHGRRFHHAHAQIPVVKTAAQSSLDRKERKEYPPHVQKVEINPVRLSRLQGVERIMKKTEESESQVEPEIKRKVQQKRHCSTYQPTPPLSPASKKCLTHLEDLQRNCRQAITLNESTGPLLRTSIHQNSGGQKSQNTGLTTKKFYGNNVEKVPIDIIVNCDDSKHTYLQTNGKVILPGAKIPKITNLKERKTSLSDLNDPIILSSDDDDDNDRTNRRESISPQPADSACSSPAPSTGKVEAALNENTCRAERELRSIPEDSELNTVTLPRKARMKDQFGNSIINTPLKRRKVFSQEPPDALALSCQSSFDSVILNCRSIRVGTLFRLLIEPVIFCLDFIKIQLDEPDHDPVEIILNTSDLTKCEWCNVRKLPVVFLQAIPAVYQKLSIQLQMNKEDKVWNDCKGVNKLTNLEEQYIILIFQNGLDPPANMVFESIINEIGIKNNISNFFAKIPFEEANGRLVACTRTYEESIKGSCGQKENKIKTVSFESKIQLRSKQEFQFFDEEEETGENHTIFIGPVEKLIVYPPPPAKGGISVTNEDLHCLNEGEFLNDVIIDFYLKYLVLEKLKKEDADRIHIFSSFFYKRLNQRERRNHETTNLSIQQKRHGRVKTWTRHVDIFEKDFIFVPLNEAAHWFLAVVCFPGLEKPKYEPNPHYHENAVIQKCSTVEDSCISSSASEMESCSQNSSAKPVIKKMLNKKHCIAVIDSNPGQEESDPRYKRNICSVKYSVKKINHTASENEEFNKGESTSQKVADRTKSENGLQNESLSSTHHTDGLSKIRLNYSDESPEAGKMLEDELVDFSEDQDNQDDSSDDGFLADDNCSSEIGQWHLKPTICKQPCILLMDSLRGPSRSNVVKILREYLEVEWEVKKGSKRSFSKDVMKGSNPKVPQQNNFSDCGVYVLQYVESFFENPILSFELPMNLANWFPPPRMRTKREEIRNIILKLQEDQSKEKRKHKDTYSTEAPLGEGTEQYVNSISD
It is filed as functional.

A further experiment concerns the target T3, Caspase-3 (Homo sapiens, UniProt P42574).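 Further: Dose-response selectivity test against caspase-3 for candidate inhibitors of sentrin-specific proteases (SENPs).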
T3 sequence (P42574 whole entry): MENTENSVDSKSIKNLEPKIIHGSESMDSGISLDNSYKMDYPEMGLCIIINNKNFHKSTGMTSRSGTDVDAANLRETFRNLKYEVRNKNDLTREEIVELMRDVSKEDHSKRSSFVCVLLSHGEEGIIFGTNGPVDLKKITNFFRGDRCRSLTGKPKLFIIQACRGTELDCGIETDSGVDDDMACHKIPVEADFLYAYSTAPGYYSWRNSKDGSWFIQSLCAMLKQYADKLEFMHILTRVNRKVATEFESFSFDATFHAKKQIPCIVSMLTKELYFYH
It is filed as functional.

Experiment [3] deals with T4, Sentrin-specific protease 8 (Homo sapiens, UniProt Q96LD8).
T4 sequence (Q96LD8 whole entry): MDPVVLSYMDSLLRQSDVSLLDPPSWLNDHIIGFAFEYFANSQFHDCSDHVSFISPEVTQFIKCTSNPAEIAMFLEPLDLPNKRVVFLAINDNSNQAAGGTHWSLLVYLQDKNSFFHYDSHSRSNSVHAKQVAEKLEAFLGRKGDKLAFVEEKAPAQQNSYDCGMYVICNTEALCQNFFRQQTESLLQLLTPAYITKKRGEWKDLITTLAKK
It is filed as functional.

For another experiment, the target named is T5, Cytochrome P450 1A2 (Homo sapiens, UniProt P05177).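 Further: PubChem cytochrome P450 panel assay, CYP1A2 panel member.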
T5 sequence (P05177 whole entry): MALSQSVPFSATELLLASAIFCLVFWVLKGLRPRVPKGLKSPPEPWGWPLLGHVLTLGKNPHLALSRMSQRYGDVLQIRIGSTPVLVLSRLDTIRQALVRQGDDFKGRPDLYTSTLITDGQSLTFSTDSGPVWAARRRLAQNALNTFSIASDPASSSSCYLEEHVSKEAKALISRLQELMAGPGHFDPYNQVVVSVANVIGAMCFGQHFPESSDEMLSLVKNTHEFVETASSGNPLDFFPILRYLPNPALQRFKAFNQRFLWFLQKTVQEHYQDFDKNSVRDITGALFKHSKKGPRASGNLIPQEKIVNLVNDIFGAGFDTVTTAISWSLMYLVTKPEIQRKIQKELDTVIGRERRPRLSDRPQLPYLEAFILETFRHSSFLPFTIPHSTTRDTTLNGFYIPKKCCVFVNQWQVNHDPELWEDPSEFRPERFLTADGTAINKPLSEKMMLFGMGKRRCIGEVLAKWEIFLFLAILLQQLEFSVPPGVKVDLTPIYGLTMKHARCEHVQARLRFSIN

Experiment [4] deals with T6, Estrogen receptor beta (Homo sapiens, UniProt Q92731). The experiment is described as follows: blockers of SRC-3 recruitment to ERβ – biochemical, ELISA, streptavidin-HRP readout, orthogonal assay, confirmation (AID 1060). A general note: ELISA stands for enzyme-linked immunosorbent assay.
Experiment [5] concerns the target T6, Estrogen receptor beta.
Experiment [6] is described as follows: viability loss in THP-1 monocytes – THP-1 cells, cytotoxicity control for Vif-APOBEC3G degradation inhibitor project, dose response (AID 1117359). Format: functional. The note with it: THP-1.
Experiment [7] in a line: loss of viability in HepG2 cells – cell-based, CellTiter-Glo, cherry-picked, cytotoxicity control for Shn3 inhibitor project, dose response (AID 624134). Format: functional. (In general: In ATP-based viability assays light output follows the ATP content of the culture.)
Experiment [8] is described as follows: non-specific 3'UTR reporter inhibition in Clone20-Shn3RL – cell-based, Renilla luciferase, cherry-picked, counter-screen for Shn3 inhibitor project, dose response (AID 624133). It is filed as functional. For orientation: A counterscreen serves to expose hits that act by an unwanted route or on another target.
The nature of experiment [9]: reduction of Shn3 3'UTR-driven luciferase in osteoblasts – cell-based, Clone20 osteoblasts, firefly luciferase, cherry-picked, dose response (AID 624132).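 Further: firefly luciferase luminescence from reporter carrying the Shn3 3'UTR in osteoblasts.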 It is filed as functional.
For experiment [10], the target named is T7, Carboxy-terminal domain RNA polymerase II polypeptide A small phosphatase 1 (Homo sapiens, UniProt Q9GZU7).
T7 sequence (Q9GZU7 whole entry): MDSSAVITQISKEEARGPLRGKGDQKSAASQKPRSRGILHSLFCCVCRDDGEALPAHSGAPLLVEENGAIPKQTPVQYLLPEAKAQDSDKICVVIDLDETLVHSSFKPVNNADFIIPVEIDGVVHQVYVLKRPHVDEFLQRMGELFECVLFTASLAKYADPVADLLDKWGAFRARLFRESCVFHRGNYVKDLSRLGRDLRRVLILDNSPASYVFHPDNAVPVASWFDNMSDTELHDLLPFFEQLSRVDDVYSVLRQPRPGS
The experiment is described as follows: CTDSP1 inhibitors, concentration-response, biochemical, absorbance readout, ultra-high-throughput screen actives (AID 540297). Format: functional.

Another experiment has as its system HEK293. The experiment is described as follows: EBV LMP1 TES2 canonical NF-kB signalling blockers – cell-based, HEK293, luciferase, cherry-pick, dose response (AID 588343). It is filed as functional. The note with it: Homo sapiens.

Molecules are shown by their SMILES. Calls of active or inactive are those of the source.

T6 sequence (Q92731 whole entry): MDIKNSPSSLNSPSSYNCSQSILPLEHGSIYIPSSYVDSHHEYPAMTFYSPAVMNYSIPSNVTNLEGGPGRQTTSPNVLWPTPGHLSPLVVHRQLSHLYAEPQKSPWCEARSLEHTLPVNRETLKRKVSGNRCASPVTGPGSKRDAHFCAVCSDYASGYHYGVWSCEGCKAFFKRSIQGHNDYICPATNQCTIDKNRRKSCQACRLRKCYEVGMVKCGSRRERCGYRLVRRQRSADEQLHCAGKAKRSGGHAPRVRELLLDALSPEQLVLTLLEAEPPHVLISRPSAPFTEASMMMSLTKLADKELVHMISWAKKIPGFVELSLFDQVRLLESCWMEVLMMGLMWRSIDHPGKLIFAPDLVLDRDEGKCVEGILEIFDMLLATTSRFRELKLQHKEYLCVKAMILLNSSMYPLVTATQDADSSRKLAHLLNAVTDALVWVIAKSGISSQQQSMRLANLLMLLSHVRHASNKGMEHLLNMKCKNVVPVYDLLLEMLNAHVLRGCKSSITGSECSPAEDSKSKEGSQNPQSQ
Sequence of Cytochrome P450 2D6 (P10635 whole entry): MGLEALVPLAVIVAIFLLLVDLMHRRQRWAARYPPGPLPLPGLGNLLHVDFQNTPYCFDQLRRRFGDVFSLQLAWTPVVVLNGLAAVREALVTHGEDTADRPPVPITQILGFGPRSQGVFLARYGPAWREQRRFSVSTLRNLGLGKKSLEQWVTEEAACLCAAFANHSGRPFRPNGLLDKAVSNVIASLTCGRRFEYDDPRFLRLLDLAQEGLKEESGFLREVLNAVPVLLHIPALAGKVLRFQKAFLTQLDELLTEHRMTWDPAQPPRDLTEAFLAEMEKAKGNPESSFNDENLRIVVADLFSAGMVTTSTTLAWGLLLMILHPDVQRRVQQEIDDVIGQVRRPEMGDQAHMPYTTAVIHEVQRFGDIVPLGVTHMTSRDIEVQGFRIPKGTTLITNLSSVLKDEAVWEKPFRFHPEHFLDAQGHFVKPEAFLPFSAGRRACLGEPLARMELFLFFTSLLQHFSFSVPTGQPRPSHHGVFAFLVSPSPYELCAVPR
Sequence of Cytochrome P450 2C19 (P33261 whole entry): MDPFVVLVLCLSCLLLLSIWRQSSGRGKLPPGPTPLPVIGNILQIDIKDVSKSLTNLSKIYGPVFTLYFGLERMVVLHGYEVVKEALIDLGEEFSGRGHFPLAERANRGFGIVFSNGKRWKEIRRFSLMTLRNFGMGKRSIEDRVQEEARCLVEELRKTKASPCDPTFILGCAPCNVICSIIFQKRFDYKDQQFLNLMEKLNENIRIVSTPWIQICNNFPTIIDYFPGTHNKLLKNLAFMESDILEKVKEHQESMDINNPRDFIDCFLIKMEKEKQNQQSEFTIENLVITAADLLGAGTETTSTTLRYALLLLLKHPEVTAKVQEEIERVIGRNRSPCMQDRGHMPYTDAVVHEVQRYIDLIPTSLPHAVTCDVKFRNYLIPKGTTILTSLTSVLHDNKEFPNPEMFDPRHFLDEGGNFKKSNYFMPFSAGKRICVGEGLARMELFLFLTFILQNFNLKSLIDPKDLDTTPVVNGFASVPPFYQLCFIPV

Turning to `C/C(=N\OC(=O)c1ccccc1F)c1nccs1`, the AC50 (usually the midpoint of the concentration-response curve, whichever way the signal moves) was 35.5 µM (inconclusive) on Cytochrome P450 2C19, 28.2 µM (inconclusive) at Cytochrome P450 2D6 and 31.6 µM (inconclusive) on Cytochrome P450 1A2. The IC50 (usually the concentration needed to halve the response being measured) was 2.97 µM (active) in [1], 17.2 µM (active) in experiment [2], 71.1 µM (active) at Caspase-3 and 62.9 µM (active) in experiment [3].
With `Cc1ccccc1/C=C\c1nc(O)c2ccccc2n1`, the IC50 is 2.16 µM (active) in [1], 2.74 µM (active) in [2], 3.24 µM (active) at Caspase-3 and 2.64 µM (active) in experiment [3].
On to `CCOc1ccccc1-n1nnnc1SCC(=O)NC(=O)NCc1ccco1`, for which the half-maximal inhibitory concentration (IC50) on Estrogen receptor beta [4] was 9.38 µM (not active); on Estrogen receptor beta [5], 7.76 µM (active).
Consider `Cc1ccnc(NC(=O)c2ccc(Cl)c(S(=O)(=O)N3CCCC3)c2)c1`, for which, in experiment [6], the CC50 (usually the concentration giving 50% cytotoxicity) was > 40 µM (active).
Consider `CC(=O)Nc1nonc1-c1nc2ccccc2n1N(C(C)=O)C(C)=O`, for which the IC50 is > 109 µM (not active) on Estrogen receptor beta [4] and 2.75 µM (active) on Estrogen receptor beta [5].
With `O=C1CSc2ccc(C(=O)Nc3cccc(S(=O)(=O)Nc4ccc(Br)cc4)c3)cc2N1`, the AC50 is 45.6 µM (active) in [7], 8.81 µM (active) in [8] and 3.08 µM (active) in experiment [9].
For `Cc1nc2ccc(NS(=O)(=O)c3ccc4c(c3)OCCO4)cc2s1`, the AC50 in experiment [7] is 4.15 µM (active); in [8], > 70 µM (inactive); in experiment [9], 0.635 µM (active).
For `COc1ccc(S(=O)(=O)N2CCN(C(=O)c3cc(-c4ccccc4OC)[nH]n3)CC2)cc1`, in experiment [6], the CC50 was > 40 µM (active).
In the case of `CCOc1ccc2nc(NC(=O)CCC(=O)c3cccs3)sc2c1`, the IC50 against Estrogen receptor beta [4] was 0.0637 µM (not active); at Estrogen receptor beta [5], 9.84 µM (active).
For the molecule `CC1C=CC=CC=CC=CC=CC=CC=CC(OC2OC(C)C(O)C(N)C2O)CC2OC(O)(CC(O)CC(O)C(O)CCC(O)CC(O)CC(=O)OC(C)C(C)C1O)CC(O)C2C(=O)O` (stereo not drawn), the CC50 in experiment [6] is 3.14 µM (active). In experiment [10], the IC50 was 1.17 µM (active).
`Cc1cc(C(=O)COC(=O)c2cccc(NS(C)(=O)=O)c2)c(C)n1CC1CCCO1` (stereo not drawn): in the experiment on HEK293, the half-maximal activity concentration (AC50) was 3.15 µM (active).

Source of the values: ChEMBL document CHEMBL1201862, “PubChem BioAssay data set” (2004).
